Measured values taken from PubChem BioAssay (NCI).
“And” between values parts separate entries of the source, which are not always exact repeats. Identical values can stand only once.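 Cultured in 96-well plates, cells were exposed to test compound for 48 hours across five concentrations. Here, GI50 denotes the concentration required for 50% inhibition of growth. TGI: concentration producing complete growth inhibition.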

How the values were obtained:
Assay in all cases: growth of human tumour cells (NCI), 48 h
[1] = system: DU-145 prostate
[2] = system: LXFL 529 NSCLC
[3] = system: DMS 273 small cell lung
[4] = system: HOP-18 NSCLC
[5] = system: RXF-631 renal
[6] = system: MDA-N

**Q.** For `CN1CCN(c2ccc(C(=O)Nc3n[nH]c4ccc(Cc5cc(F)cc(F)c5)cc34)c(NC3CCOCC3)c2)CC1`, which GI50 [1] is on record?
**A.** 4.22 µM and 1.65 µM

**Q.** And the TGI [1]?
**A.** > 10 µM and 3.04 µM

**Q.** Which results are given for `O=S(=O)(Nc1ncccn1)c1ccc(N=Nc2ccc(O)c3ncccc23)cc1`?
**A.** GI50 [1]: 12 µM; TGI [1]: > 100 µM

**Q.** Which results are given for `COc1ccc(Cn2c(C)nc3c2C(=O)c2ccccc2C3=O)cc1`?
**A.** TGI [2]: 28.7 µM; TGI [3]: 19.7 µM

**Q.** Which TGI [4] does the source give for `[O-]/[N+](=C\c1ccccc1)[C@H](COCc1ccccc1)c1ccccc1` here?
**A.** 90.4 µM

**Q.** And the TGI [5]?
**A.** > 100 µM

**Q.** What about the TGI [2] of the same compound?
**A.** > 100 µM

**Q.** And the TGI [3]?
**A.** > 100 µM

**Q.** Which TGI [4] does the source give for `O=C(O)c1ccccc1Cc1ccco1` here?
**A.** > 100 µM

**Q.** What about the TGI [2] of the same compound?
**A.** > 100 µM

**Q.** And the TGI [3]?
**A.** > 100 µM

**Q.** `N#Cc1cc(C#N)c(Cl)nc1N` was tested. Which TGI [6] did it give?
**A.** > 10 µM

**Q.** Which results are given for `C(=Nc1ccccc1)C1CCCC[N-]1.C(=Nc1ccccc1)C1CCCC[N-]1.[Cu+2].[O-][Cl+3]([O-])([O-])O` (centres undefined)?
**A.** GI50 [1]: 8.48 µM; TGI [1]: 36.9 µM

**Q.** With `CO[C@H](C(=O)[C@@H](O)[C@@H](C)O)[C@@H]1Cc2cc3cc(O[C@H]4C[C@@H](O[C@H]5C[C@@H](O)[C@H](O)C(C)O5)[C@H](O)C(C)O4)c(C)c(O)c3c(O)c2C(=O)[C@H]1O[C@H]1C[C@@H](O[C@H]2C[C@@H](O[C@H]3C[C@@H](OC)[C@H](O)C(C)O3)[C@@H](O)C(C)O2)C(O)(O)C(C)O1` (some centres undefined) as the compound, how does the GI50 [1] read?
**A.** 0.237 µM

**Q.** What about the TGI [1] of the same compound?
**A.** > 25 µM

**Q.** How did the GI50 [1] turn out when `CC1=NN(C(=O)c2ccccc2O)C(=O)/C1=C/c1ccc([N+](=O)[O-])cc1` was run?
**A.** 0.327 µM

**Q.** What about the TGI [1] of the same compound?
**A.** > 100 µM

**Q.** What about the TGI [2] of the same compound?
**A.** > 100 µM

**Q.** What about the GI50 [6] of the same compound?
**A.** 0.0903 µM

**Q.** And the TGI [6]?
**A.** > 100 µM

**Q.** `CCOc1ccc(NC(=O)CC2SC(=Nc3ccc(Cl)cc3)NC2=O)cc1` (centres undefined) was tested. Which TGI [4] did it give?
**A.** > 100 µM

**Q.** And the TGI [5]?
**A.** > 100 µM

**Q.** And the TGI [2]?
**A.** > 100 µM

**Q.** And the TGI [3]?
**A.** > 100 µM

**Q.** Which GI50 [1] does the source give for `COc1cc(-c2nn3c(/C=C4/C(=O)Nc5ccccc54)c(-c4ccc(C)cc4)nc3s2)cc(OC)c1OC` here?
**A.** 2.55 µM

**Q.** What about the TGI [1] of the same compound?
**A.** > 100 µM

**Q.** What does the source list for `Cc1c2cc[nH]c(=O)c2c(C)c2c1[nH]c1cc(OCCN3CCN(C)CC3)ccc12`?
**A.** GI50 [1]: 0.813 µM; TGI [1]: 8.97 µM

**Q.** For `O=[As](O)(O)c1ccc(NCc2ccccc2)cc1`, which TGI [1] is on record?
**A.** > 100 µM

**Q.** What about the TGI [6] of the same compound?
**A.** > 100 µM

**Q.** Which TGI [4] does the source give for `O=C(O)CN(c1ccccc1)S(=O)(=O)c1ccc(NC(=O)c2ccccc2)cc1` here?
**A.** > 100 µM

**Q.** And the TGI [2]?
**A.** > 100 µM

**Q.** And the TGI [3]?
**A.** > 100 µM

**Q.** `CCOc1ccc2nc(NC(=O)C(=O)C(C(=O)c3ccccc3-c3ccccc3)C3OC(=O)c4ccccc43)sc2c1` (centres undefined) was tested. Which TGI [1] did it give?
**A.** 56.1 µM

**Q.** What about the TGI [2] of the same compound?
**A.** 41.1 µM

**Q.** And the TGI [6]?
**A.** 70.9 µM

**Q.** And the TGI [3]?
**A.** > 100 µM

**Q.** How did the GI50 [1] turn out when `Cc1cc(C)nc(NC(N)=NCCc2ccccc2)n1` was run?
**A.** 3.4 µM

**Q.** What about the TGI [1] of the same compound?
**A.** > 100 µM

**Q.** How did the TGI [1] turn out when `Cc1nc2ccc(CN(C)c3ccc(C(=O)N[C@@H](CCC(=O)O)C(=O)O)s3)cc2c(=O)[nH]1` was run?
**A.** > 100 µM

**Q.** Which results are given for `CNC(=O)c1cc(COc2nnc(Nc3ccc(Cl)cc3)c3ccoc23)ccn1`?
**A.** GI50 [1]: 9.43 µM and > 10 µM; TGI [1]: 26 µM and > 10 µM

**Q.** What does the source list for `O=C(CC1=Nc2nnc(-c3nnc4n3C(=O)C(CC(=O)c3cccnc3)=N4)n2C1=O)c1cccnc1`?
**A.** TGI [5]: > 100 µM; TGI [2]: > 100 µM; TGI [3]: > 100 µM

**Q.** For `O=C(c1ccc2ccccc2c1O)N1CCCCC1`, which TGI [1] is on record?
**A.** > 100 µM

**Q.** Which results are given for `COC(=O)[C@@H](NC(=O)NC(=O)NC(=O)CI)C(C)C`?
**A.** GI50 [1]: 16.4 µM; TGI [1]: 29.9 µM

**Q.** `C=CC(=O)Nc1ccc(Nc2nccc(-c3ccc(N4CCCC4)c(C#N)c3)n2)cc1` was tested. Which GI50 [1] did it give?
**A.** 14.1 µM

**Q.** What about the TGI [1] of the same compound?
**A.** > 25 µM

**Q.** Which TGI [2] does the source give for `C=CCC1OC(C)(C)Oc2ccc(OCOCCOC)cc21` (centres undefined) here?
**A.** > 100 µM

**Q.** For `COc1ccc(S(=O)(=O)NC(C)C(=O)O)cc1` (centres undefined), which TGI [4] is on record?
**A.** > 100 µM

**Q.** What about the TGI [2] of the same compound?
**A.** > 100 µM

**Q.** What about the TGI [3] of the same compound?
**A.** > 100 µM

**Q.** `O=C(c1ccccc1)c1c(NCC(O)CN2CCCC2)n(Cc2ccccc2)c(=O)n(Cc2ccccc2)c1=O` (centres undefined) was tested. Which GI50 [1] did it give?
**A.** 17.8 µM

**Q.** What about the TGI [1] of the same compound?
**A.** 34.7 µM

**Q.** With `N=C(c1ccccc1)N(c1ccccc1)c1ccccc1` as the compound, how does the TGI [4] read?
**A.** 13.1 µM

**Q.** And the TGI [2]?
**A.** > 100 µM

**Q.** What about the TGI [3] of the same compound?
**A.** > 100 µM

**Q.** `Nc1nc(CCC(=O)Nc2cccc(C(F)(F)F)c2)cc(-c2cccc3ccccc23)n1` was tested. Which TGI [4] did it give?
**A.** > 100 µM

**Q.** And the TGI [5]?
**A.** > 100 µM

**Q.** And the TGI [2]?
**A.** > 100 µM

**Q.** What about the TGI [3] of the same compound?
**A.** > 100 µM

**Q.** What does the source list for `FC(F)(F)C1(Cl)C(c2ccccc2)=C1c1ccccc1`?
**A.** TGI [4]: 35.6 µM; TGI [5]: 29.2 µM; TGI [2]: 26.3 µM; TGI [3]: 27.6 µM

**Q.** Which TGI [2] does the source give for `C1OCC2S[C@@H]3COCO[C@@H]3C2O1` (some centres undefined) here?
**A.** > 100 µM

**Q.** And the TGI [3]?
**A.** > 100 µM

**Q.** Which GI50 [1] does the source give for `Cc1[nH]ncc1-c1cc2nc(C3CC4CCN3CC4)[nH]c(=O)c2s1` (centres undefined) here?
**A.** 3 µM

**Q.** And the TGI [1]?
**A.** > 100 µM

**Q.** With `COc1ccc(-c2[nH]ncc2-c2cc3c(c(OC)c2)OCC(=O)N3)cc1` as the compound, how does the GI50 [1] read?
**A.** 1.18 µM

**Q.** And the TGI [1]?
**A.** > 100 µM

**Q.** How did the TGI [2] turn out when `COc1cc2c(cc1O)C=NCC2` was run?
**A.** > 100 µM

**Q.** What about the TGI [3] of the same compound?
**A.** > 100 µM

**Q.** Which GI50 [1] does the source give for `O=C(/C=C/c1ccc(B(O)O)cc1)/C=C/c1ccc(B(O)O)cc1` here?
**A.** 4.63 µM

**Q.** And the TGI [1]?
**A.** 14.9 µM

**Q.** How did the TGI [4] turn out when `CC12CC3C(CC1SCC(=O)O2)C3(C)C` (centres undefined) was run?
**A.** > 100 µM

**Q.** And the TGI [2]?
**A.** > 100 µM

**Q.** What about the TGI [3] of the same compound?
**A.** > 100 µM

**Q.** `CCCN(CCC)CCCNCc1cc(I)cc(C)c1O` was tested. Which GI50 [1] did it give?
**A.** 19.4 µM

**Q.** And the TGI [1]?
**A.** 42 µM

**Q.** For `Cc1ccc(C(=O)N(CCCN)[C@@H](c2nc3cc(Cl)ccc3c(=O)n2Cc2ccccc2)C(C)C)cc1`, which GI50 [1] is on record?
**A.** < 0.01 µM

**Q.** For `COc1cc(/C(Cl)=C/C=C/C(=O)c2c(C)[n+]([O-])c3ccc(Cl)cc3[n+]2[O-])cc(OC)c1OC`, which GI50 [1] is on record?
**A.** 11.8 µM

**Q.** What about the TGI [1] of the same compound?
**A.** > 50 µM

**Q.** What does the source list for `CCCCCCCCCCCOC(=S)NC(C)C`?
**A.** TGI [4]: 88.5 µM; TGI [2]: 85.4 µM; TGI [3]: 34.4 µM

**Q.** What does the source list for `C1=C(c2ccccc2)CN(c2ccccc2)OC1`?
**A.** TGI [4]: 69.3 µM; TGI [2]: > 100 µM; TGI [3]: > 100 µM
